Assay results taken from patent US10168342B2, “Lipid probes and uses thereof” (THE SCRIPPS RESEARCH INSTITUTE, priority 2015, dated 2019).
Where two headings read alike, the source gives them in different places.

What was measured:
[1] = target: AEA-DA lipid probe targets in Neuro2a cells (Mus musculus, UniProt Q91VE6)
[2] = target: AEA-DA lipid probe targets in Neuro2a cells (Mus musculus, UniProt Q64310)
[3] = target: AEA-DA lipid probe targets in Neuro2a cells (Mus musculus, UniProt Q91WD5)
[4] = target: T1, AEA-DA lipid probe targets in Neuro2a cells (Mus musculus, UniProt P16014)
T1 sequence (P16014 21-677): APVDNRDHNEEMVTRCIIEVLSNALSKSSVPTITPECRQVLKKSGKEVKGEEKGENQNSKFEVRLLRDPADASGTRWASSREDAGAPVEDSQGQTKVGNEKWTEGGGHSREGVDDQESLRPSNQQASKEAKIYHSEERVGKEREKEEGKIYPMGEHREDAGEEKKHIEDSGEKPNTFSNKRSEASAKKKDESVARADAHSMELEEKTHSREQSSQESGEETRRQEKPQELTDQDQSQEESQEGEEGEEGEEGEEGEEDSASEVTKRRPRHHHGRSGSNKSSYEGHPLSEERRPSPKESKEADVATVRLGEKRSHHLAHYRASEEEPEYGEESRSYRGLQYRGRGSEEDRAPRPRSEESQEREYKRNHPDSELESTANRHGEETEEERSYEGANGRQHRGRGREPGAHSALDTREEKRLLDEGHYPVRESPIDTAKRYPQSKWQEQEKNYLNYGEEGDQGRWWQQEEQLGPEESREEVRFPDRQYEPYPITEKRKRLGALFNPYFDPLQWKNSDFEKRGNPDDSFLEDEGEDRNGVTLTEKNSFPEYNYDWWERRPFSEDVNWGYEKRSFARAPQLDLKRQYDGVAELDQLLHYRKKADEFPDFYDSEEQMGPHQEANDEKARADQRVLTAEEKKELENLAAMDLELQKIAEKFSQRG

[5] = target: AEA-DA lipid probe targets in Neuro2a cells (Mus musculus, UniProt Q8VDQ1)
[6] = target: AEA-DA lipid probe targets in Neuro2a cells (Mus musculus, UniProt Q8VIK2)
[7] = target: T2, AEA-DA lipid probe targets in Neuro2a cells (Mus musculus, UniProt Q5SW19)
T2 sequence (Q5SW19 1-1315): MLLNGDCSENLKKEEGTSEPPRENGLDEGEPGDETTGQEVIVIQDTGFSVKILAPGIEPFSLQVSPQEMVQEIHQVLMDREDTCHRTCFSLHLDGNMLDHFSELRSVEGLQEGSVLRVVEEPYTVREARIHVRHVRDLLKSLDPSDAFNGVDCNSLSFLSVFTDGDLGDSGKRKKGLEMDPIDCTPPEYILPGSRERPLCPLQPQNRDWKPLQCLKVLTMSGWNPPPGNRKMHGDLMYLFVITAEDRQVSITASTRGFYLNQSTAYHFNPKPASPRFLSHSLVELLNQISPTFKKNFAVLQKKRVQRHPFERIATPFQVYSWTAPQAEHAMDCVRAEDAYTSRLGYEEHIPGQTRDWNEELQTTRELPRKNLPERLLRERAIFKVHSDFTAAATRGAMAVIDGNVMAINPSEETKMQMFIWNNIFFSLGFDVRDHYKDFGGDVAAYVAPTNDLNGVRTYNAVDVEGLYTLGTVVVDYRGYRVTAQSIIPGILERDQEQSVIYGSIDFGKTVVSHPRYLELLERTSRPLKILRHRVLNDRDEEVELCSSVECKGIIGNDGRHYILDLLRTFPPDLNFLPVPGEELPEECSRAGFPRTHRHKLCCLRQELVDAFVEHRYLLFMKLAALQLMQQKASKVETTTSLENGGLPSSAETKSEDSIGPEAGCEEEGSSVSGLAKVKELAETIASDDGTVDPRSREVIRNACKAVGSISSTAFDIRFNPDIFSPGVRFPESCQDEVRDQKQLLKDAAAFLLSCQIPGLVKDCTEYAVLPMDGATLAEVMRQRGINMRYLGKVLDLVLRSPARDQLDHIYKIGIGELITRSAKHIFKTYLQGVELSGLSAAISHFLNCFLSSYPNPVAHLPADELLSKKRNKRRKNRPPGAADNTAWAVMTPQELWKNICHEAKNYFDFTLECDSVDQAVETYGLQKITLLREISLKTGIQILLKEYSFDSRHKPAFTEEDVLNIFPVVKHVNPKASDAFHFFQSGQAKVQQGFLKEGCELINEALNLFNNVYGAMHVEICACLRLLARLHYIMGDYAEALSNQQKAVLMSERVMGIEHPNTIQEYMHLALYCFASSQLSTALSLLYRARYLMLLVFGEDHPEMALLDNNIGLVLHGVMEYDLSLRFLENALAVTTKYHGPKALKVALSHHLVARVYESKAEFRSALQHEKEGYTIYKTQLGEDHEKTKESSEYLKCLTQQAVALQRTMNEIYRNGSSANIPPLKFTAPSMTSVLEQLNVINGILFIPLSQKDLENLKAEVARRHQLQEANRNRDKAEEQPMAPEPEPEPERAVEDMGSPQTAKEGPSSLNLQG

[8] = target: T3, AEA-DA lipid probe targets in Neuro2a cells (Mus musculus, UniProt Q61263)
T3 sequence (Q61263 1-540): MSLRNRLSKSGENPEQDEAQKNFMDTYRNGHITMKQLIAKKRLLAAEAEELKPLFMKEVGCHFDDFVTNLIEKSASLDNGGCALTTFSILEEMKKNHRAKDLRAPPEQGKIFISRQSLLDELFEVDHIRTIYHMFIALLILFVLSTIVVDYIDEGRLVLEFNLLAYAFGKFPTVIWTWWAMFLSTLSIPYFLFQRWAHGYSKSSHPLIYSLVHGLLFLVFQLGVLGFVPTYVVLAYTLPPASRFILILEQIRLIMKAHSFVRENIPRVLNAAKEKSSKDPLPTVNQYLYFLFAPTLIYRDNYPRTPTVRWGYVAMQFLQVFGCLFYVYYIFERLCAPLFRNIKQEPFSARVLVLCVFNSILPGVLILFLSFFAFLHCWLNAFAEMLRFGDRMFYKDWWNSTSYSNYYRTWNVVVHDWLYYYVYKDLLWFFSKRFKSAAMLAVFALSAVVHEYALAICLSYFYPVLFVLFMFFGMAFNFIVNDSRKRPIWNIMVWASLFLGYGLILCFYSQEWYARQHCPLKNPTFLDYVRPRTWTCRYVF

Sequence of AEA-DA lipid probe targets in Neuro2a cells (Mus musculus, UniProt Q91WD5) (Q91WD5 34-463): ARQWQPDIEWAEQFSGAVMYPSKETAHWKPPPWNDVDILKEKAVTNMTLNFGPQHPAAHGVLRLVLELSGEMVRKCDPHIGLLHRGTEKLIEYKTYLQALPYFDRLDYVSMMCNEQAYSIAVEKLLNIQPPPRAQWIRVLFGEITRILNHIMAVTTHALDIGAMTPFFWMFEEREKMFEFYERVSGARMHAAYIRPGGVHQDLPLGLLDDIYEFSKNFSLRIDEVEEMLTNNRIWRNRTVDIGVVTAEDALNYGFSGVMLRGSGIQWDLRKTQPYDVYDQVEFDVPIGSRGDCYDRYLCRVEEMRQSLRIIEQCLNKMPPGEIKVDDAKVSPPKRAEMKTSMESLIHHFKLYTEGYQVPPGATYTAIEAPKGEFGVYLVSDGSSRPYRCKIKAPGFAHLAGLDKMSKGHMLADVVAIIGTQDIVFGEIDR
Sequence of AEA-DA lipid probe targets in Neuro2a cells (Mus musculus, UniProt Q8VIK2) (Q8VIK2 whole entry): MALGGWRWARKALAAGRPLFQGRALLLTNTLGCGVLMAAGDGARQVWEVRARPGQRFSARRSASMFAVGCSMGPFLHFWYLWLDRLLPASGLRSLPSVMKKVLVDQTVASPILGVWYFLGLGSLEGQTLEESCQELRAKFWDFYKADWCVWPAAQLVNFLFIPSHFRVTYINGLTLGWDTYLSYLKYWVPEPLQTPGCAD
Sequence of AEA-DA lipid probe targets in Neuro2a cells (Mus musculus, UniProt Q8VDQ1) (Q8VDQ1 whole entry): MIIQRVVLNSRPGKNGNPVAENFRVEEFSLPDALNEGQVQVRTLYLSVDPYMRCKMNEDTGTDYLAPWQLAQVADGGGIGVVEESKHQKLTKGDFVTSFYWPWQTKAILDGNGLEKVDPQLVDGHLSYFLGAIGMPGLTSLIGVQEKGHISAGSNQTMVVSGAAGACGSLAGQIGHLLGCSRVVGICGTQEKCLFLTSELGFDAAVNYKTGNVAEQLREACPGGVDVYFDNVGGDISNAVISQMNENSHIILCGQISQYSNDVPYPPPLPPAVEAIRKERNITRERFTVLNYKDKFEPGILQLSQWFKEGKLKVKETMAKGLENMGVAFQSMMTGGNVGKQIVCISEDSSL
Sequence of AEA-DA lipid probe targets in Neuro2a cells (Mus musculus, UniProt Q64310) (Q64310 whole entry): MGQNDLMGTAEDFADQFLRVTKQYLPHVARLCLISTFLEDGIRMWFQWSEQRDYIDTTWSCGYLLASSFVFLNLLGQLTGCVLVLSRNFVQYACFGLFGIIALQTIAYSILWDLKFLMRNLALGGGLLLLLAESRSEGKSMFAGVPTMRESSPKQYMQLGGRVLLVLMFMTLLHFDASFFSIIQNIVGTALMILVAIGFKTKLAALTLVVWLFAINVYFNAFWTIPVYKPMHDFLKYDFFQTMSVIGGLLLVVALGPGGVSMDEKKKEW
Sequence of AEA-DA lipid probe targets in Neuro2a cells (Mus musculus, UniProt Q91VE6) (Q91VE6 whole entry): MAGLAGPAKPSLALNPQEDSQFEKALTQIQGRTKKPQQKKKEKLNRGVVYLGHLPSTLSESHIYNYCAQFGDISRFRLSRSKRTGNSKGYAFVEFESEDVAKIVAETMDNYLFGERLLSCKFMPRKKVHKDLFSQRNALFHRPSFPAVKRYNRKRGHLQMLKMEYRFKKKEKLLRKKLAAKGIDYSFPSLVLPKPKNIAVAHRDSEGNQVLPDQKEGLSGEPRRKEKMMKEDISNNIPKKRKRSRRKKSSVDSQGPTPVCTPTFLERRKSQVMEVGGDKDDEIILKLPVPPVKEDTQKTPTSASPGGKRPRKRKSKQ

## CCCCC/C=C\C/C=C\C/C=C\C/C=C\CCCC(=O)NCCO [AEA, anandamide, reference compound]
[1]; competitor 200 μM
  SILAC ratio Mki67ip: 1.4
[2]; competitor 200 μM
  SILAC ratio Surf4: 1.4
[3]; competitor 200 μM
  SILAC ratio Ndufs2: 1.3
[4]; competitor 200 μM
  SILAC ratio Chgb: 1.2
[5]; competitor 200 μM
  SILAC ratio, Ptgr2: 8.7
[6]; competitor 200 μM
  SILAC ratio Mpv17l2: 1.3

## O=C(/C=C/c1cccnc1)NCCCCC1CCN(C(=O)c2ccccc2)CC1 [FK-866, reference compound]
[1]; competitor 25 μM
  SILAC ratio Mki67ip: 1.0
[2]; competitor 25 μM
  SILAC ratio Surf4: 1.2
[3]; competitor 25 μM
  SILAC ratio Ndufs2: 1.7
[7]; competitor 25 μM
  SILAC ratio Kiaa0664: 1.2
[4]; competitor 25 μM
  SILAC ratio Chgb: 0.9
[8]; competitor 25 μM
  SILAC ratio, Soat1: 2.3
[5]; competitor 25 μM
  SILAC ratio, Ptgr2: 5.2
[6]; competitor 25 μM
  SILAC ratio Mpv17l2: 1.4

## CN1CCN(C(=O)c2c(-c3ccccc3)c3cc([N+](=O)[O-])ccc3n2C)CC1 [KML110, (1-Methyl-5-nitro-3-phenyl-1H-indol-2-yl)(4-methylpiperazin-1-yl)methanone]
[1]; competitor 25 μM
  SILAC ratio Mki67ip: 1.5
[2]; competitor 25 μM
  SILAC ratio Surf4: 1.4
[3]; competitor 25 μM
  SILAC ratio Ndufs2: 1.3
[7]; competitor 25 μM
  SILAC ratio Kiaa0664: 2.1
[4]; competitor 25 μM
  SILAC ratio Chgb: 1.1
[5]; competitor 25 μM
  SILAC ratio, Ptgr2: 1.5
[6]; competitor 25 μM
  SILAC ratio Mpv17l2: 1.5

## CN1CCN(C(=O)c2[nH]c3ccc([N+](=O)[O-])cc3c2-c2ccccc2)CC1 [MJN228, (4-Methylpiperazin-1-yl)(5-nitro-3-phenyl-1H-indol-2-yl)methanone]
[1]; competitor 10 μM
  SILAC ratio Mki67ip: 1.2
[1]; competitor 25 μM
  SILAC ratio Mki67ip: 1.5
[1]; competitor 50 μM
  SILAC ratio Mki67ip: 1.8
[1]; competitor 100 μM
  SILAC ratio Mki67ip: 2.3
[2]; competitor 10 μM
  SILAC ratio Surf4: 1.3
[2]; competitor 25 μM
  SILAC ratio Surf4: 1.4
[2]; competitor 50 μM
  SILAC ratio Surf4: 1.7
[2]; competitor 100 μM
  SILAC ratio Surf4: 2.0
[3]; competitor 10 μM
  SILAC ratio Ndufs2: 1.3
[3]; competitor 25 μM
  SILAC ratio Ndufs2: 1.3
[3]; competitor 100 μM
  SILAC ratio Ndufs2: 1.1
[7]; competitor 10 μM
  SILAC ratio Kiaa0664: 1.5
[7]; competitor 25 μM
  SILAC ratio Kiaa0664: 2.2
[7]; competitor 50 μM
  SILAC ratio Kiaa0664: 1.0
[7]; competitor 100 μM
  SILAC ratio Kiaa0664: 1.9
[4]; competitor 10 μM
  SILAC ratio Chgb: 1.2
[4]; competitor 25 μM
  SILAC ratio Chgb: 0.9
[4]; competitor 50 μM
  SILAC ratio Chgb: 0.4
[4]; competitor 100 μM
  SILAC ratio Chgb: 0.4
[8]; competitor 10 μM
  SILAC ratio, Soat1: 1.2
[8]; competitor 25 μM
  SILAC ratio, Soat1: 2.6
[5]; competitor 10 μM
  SILAC ratio, Ptgr2: 1.2
[5]; competitor 25 μM
  SILAC ratio, Ptgr2: 1.2
[5]; competitor 50 μM
  SILAC ratio, Ptgr2: 1.0
[5]; competitor 100 μM
  SILAC ratio, Ptgr2: 1.5
[6]; competitor 10 μM
  SILAC ratio Mpv17l2: 1.1
[6]; competitor 25 μM
  SILAC ratio Mpv17l2: 1.2
[6]; competitor 50 μM
  SILAC ratio Mpv17l2: 1.0
[6]; competitor 100 μM
  SILAC ratio Mpv17l2: 3.6

## C=CCN(C)CCCCCCOc1ccc(C(=O)c2ccc(Br)cc2)c(F)c1 [Ro 48-8071, reference compound]
[1]; competitor 25 μM
  SILAC ratio Mki67ip: 1.0
[2]; competitor 25 μM
  SILAC ratio Surf4: 1.1
[3]; competitor 25 μM
  SILAC ratio Ndufs2: 1.2
[7]; competitor 25 μM
  SILAC ratio Kiaa0664: 1.0
[4]; competitor 25 μM
  SILAC ratio Chgb: 0.7
[8]; competitor 25 μM
  SILAC ratio, Soat1: 1.8
[5]; competitor 25 μM
  SILAC ratio, Ptgr2: 1.1
[6]; competitor 25 μM
  SILAC ratio Mpv17l2: 1.8
